# Reference: ChEMBL document CHEMBL3991601, “The target landscape of clinical kinase drugs” (Science, 2017)
# The source made the active and inactive calls.
# How the values were obtained:
# [1] = biological target: Dual specificity testis-specific protein kinase 1 (Homo sapiens, UniProt Q15569)
# [2] = biological target: Protein kinase C theta type (Homo sapiens, UniProt Q04759)
# [3] = biological target: Cyclin-dependent kinase 17 (Homo sapiens, UniProt Q00537)
# [4] = biological target: MAP kinase-activated protein kinase 3 (Homo sapiens, UniProt Q16644)
# [5] = biological target: Hepatocyte growth factor receptor (Homo sapiens, UniProt P08581)
# [6] = biological target: T1, Isoleucine--tRNA ligase, mitochondrial (Homo sapiens, UniProt Q9NSE4)
# T1 sequence (Q9NSE4 whole entry): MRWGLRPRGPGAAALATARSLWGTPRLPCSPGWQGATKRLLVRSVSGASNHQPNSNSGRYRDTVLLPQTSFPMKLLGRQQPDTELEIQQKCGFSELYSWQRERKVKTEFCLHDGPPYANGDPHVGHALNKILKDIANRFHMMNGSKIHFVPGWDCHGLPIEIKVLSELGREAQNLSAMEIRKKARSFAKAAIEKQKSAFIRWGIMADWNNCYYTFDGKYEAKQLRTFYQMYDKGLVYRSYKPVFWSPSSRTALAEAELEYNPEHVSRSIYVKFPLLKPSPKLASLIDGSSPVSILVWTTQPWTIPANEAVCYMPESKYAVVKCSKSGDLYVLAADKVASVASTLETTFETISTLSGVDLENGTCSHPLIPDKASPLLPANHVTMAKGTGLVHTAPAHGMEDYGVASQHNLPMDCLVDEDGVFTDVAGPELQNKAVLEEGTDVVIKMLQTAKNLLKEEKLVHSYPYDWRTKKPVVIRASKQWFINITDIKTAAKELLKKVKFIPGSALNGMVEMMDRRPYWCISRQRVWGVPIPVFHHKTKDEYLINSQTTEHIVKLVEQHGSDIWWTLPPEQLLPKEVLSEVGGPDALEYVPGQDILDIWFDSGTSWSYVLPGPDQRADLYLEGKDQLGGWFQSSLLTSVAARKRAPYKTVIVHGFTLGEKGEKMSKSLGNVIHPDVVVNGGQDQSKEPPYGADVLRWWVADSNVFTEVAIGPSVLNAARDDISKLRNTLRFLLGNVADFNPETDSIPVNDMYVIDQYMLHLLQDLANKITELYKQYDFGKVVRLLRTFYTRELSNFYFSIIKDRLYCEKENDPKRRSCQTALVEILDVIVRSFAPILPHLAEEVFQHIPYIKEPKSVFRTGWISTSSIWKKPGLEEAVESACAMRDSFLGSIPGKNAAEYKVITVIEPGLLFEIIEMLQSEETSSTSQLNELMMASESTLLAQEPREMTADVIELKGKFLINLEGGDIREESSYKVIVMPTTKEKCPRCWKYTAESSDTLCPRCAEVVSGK
# [7] = biological target: Serine/threonine-protein kinase ATR (Homo sapiens, UniProt Q13535)
# Misshapen-like kinase 1 = Misshapen-like kinase 1 (Homo sapiens, UniProt Q8N4C8)
# [8] = biological target: Serine/threonine-protein kinase 38-like (Homo sapiens, UniProt Q9Y2H1)
# [9] = biological target: T2, Tyrosine-protein kinase Mer (Homo sapiens, UniProt Q12866)
# T2 sequence (Q12866 whole entry): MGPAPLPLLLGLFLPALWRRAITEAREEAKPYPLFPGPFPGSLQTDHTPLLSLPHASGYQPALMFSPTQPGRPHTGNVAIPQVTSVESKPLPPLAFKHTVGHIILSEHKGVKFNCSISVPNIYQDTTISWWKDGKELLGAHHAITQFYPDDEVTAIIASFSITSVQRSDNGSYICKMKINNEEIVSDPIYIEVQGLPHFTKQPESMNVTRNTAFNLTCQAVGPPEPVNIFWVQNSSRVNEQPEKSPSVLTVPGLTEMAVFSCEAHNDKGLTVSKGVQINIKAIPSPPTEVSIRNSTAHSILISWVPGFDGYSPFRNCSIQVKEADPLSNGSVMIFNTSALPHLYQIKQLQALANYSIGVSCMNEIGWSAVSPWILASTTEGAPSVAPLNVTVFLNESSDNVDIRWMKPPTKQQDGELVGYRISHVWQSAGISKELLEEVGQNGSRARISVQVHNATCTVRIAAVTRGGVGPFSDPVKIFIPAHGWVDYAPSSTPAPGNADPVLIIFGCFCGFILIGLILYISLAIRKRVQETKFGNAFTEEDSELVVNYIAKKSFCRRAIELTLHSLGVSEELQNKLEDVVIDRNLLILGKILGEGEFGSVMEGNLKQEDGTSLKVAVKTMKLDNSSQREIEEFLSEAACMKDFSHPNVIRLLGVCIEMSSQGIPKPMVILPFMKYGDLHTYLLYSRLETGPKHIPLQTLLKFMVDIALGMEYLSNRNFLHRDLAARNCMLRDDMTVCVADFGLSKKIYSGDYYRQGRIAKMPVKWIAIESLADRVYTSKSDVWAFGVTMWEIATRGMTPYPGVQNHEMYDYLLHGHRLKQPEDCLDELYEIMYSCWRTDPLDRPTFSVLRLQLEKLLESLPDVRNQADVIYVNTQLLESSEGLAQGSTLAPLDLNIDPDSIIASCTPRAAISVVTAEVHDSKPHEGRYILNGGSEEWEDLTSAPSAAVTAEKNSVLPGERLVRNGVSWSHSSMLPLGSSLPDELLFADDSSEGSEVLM
# [10] = biological target: Serine/threonine-protein kinase 38 (Homo sapiens, UniProt Q15208)
# Note: in the data inactive means no Kd found up to 30 µM.
# Chain of Hepatocyte growth factor receptor (P08581 whole entry): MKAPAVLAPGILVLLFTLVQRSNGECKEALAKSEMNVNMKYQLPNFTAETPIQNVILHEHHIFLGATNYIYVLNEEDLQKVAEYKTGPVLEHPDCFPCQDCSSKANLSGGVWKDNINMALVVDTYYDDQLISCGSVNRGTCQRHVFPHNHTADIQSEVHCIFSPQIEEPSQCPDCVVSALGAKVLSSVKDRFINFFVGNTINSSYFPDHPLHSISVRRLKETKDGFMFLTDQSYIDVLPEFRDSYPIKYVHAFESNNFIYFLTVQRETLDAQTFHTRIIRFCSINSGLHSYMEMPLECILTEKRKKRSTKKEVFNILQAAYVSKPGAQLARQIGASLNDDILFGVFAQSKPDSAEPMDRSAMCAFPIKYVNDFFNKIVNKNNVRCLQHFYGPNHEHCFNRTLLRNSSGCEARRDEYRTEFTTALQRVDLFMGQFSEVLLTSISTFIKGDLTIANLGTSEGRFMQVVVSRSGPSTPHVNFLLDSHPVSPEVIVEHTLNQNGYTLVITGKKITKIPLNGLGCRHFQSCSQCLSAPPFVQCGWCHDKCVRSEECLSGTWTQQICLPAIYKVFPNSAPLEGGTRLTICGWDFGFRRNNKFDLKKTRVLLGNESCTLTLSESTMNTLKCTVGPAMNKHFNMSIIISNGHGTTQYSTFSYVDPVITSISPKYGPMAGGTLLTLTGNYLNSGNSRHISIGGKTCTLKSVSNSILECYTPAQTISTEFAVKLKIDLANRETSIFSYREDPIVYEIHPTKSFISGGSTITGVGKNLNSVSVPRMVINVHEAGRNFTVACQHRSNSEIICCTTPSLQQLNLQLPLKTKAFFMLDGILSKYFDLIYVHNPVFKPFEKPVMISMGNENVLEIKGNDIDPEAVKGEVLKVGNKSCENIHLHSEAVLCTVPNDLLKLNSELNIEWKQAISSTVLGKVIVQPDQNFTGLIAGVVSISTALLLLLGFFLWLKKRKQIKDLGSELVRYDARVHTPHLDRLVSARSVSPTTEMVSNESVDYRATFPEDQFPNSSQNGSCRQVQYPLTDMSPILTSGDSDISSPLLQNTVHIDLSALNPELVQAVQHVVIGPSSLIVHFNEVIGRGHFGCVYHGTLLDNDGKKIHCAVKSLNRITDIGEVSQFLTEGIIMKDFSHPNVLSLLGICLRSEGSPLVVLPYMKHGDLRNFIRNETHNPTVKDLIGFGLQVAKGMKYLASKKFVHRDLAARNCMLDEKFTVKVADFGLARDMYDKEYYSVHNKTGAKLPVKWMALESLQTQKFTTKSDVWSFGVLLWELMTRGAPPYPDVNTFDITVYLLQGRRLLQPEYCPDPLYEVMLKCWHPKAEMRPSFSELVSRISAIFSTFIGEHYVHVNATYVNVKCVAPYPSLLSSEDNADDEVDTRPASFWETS
# Chain of Cyclin-dependent kinase 17 (Q00537 whole entry): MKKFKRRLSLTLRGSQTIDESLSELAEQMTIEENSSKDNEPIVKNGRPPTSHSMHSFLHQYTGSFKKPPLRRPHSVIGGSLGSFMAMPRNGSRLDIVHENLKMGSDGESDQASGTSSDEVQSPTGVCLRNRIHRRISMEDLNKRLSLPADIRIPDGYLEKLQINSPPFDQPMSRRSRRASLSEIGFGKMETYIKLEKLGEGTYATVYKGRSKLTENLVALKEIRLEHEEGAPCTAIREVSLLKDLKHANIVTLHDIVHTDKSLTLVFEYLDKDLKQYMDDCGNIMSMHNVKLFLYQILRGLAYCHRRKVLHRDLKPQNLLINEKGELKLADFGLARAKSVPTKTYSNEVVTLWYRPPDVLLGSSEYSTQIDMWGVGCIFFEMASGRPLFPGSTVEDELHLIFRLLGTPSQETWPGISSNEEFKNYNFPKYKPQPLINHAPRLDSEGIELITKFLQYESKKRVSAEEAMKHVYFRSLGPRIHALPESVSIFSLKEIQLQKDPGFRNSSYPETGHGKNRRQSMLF
# Chain of Misshapen-like kinase 1 (Q8N4C8 whole entry): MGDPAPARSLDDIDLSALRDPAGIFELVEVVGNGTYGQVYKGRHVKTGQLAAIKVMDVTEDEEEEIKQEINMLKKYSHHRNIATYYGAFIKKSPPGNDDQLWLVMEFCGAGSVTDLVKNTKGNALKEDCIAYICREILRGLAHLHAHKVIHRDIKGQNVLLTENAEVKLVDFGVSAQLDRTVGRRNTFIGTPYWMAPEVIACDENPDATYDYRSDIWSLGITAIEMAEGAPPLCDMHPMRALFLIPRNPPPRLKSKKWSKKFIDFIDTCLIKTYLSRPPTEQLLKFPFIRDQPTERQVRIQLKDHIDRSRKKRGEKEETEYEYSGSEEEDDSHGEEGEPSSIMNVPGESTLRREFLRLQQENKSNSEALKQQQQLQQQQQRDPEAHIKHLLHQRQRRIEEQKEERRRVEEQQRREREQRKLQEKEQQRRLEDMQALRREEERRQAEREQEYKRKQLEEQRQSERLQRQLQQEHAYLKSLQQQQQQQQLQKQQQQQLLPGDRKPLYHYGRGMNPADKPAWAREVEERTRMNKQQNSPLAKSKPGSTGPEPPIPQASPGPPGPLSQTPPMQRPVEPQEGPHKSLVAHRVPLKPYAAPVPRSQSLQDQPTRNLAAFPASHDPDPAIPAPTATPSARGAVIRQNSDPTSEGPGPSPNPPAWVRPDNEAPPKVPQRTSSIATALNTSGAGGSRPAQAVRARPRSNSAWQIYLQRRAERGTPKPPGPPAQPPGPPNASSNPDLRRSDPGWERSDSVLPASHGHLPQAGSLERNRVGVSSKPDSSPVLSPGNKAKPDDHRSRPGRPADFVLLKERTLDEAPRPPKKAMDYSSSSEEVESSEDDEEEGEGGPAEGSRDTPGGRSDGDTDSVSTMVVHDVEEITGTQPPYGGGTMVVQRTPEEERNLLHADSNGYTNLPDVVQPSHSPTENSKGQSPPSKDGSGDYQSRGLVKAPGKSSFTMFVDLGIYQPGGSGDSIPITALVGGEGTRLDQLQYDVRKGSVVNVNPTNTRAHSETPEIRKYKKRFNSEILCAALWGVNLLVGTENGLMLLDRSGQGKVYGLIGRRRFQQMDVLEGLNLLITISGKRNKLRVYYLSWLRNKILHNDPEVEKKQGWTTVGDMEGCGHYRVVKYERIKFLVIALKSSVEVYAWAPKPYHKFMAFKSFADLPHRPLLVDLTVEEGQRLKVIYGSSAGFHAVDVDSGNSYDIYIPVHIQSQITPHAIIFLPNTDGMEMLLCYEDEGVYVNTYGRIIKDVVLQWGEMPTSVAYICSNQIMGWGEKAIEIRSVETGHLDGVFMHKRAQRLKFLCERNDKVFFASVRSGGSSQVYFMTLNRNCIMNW
# Chain of Dual specificity testis-specific protein kinase 1 (Q15569 whole entry): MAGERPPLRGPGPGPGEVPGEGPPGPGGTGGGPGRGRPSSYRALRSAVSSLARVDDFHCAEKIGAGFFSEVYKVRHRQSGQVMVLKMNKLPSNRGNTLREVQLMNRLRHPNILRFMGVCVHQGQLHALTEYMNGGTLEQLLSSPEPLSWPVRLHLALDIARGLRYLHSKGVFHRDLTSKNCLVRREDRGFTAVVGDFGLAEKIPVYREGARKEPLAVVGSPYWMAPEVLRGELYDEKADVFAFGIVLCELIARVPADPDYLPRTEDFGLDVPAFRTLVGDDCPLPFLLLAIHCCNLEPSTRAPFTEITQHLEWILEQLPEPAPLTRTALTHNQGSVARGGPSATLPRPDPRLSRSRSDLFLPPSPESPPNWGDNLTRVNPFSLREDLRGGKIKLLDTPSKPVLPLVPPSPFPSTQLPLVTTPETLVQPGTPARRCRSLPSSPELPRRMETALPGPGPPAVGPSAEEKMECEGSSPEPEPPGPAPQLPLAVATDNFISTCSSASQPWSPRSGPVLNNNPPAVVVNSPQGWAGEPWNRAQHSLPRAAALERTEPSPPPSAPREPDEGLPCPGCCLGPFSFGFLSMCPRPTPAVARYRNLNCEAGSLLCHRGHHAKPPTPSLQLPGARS
# Chain of MAP kinase-activated protein kinase 3 (Q16644 whole entry): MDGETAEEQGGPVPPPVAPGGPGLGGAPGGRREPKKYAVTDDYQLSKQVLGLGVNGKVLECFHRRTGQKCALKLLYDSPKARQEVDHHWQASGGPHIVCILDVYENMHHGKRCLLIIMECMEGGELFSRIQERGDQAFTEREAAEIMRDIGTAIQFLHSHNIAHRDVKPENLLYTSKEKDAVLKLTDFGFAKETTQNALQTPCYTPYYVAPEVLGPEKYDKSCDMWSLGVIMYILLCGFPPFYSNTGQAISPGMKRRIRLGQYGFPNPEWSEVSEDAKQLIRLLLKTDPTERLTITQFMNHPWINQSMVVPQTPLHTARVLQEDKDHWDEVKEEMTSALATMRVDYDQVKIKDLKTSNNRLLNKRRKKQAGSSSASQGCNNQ
# Chain of Protein kinase C theta type (Q04759 whole entry): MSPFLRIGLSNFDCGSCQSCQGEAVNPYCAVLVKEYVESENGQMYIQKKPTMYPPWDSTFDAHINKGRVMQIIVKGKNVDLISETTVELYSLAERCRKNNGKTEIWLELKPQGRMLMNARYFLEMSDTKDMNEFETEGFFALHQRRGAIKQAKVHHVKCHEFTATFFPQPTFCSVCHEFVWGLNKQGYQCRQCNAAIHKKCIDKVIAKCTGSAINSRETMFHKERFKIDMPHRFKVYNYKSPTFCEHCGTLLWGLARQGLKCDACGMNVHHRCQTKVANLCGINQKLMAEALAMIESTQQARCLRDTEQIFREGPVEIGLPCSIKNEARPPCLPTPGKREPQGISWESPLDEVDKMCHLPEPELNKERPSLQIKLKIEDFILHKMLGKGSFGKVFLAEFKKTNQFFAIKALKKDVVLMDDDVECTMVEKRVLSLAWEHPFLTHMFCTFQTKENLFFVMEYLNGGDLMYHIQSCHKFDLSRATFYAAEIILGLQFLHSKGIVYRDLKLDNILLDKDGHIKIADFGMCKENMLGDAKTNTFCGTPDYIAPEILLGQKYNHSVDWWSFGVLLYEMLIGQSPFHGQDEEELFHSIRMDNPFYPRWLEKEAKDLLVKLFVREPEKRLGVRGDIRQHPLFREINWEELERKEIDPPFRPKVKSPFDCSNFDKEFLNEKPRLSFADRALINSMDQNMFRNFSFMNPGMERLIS
Compound,Kd [1],Kd [2],Kd [3],Kd [4],Kd [5],Kd [6],Kd [7],Kd (Misshapen-like kinase 1),Kd [8],Kd [9],Kd [10]
Cn1ncc(Cl)c1-c1cc(C(=O)N[C@H](CN)Cc2cccc(F)c2)sc1Cl [AFURESERTIB],> 30 µM (inactive),> 30 µM (inactive),> 30 µM (inactive),,,,,,,,
CNS(=O)(=O)Nc1nccc(Cc2c(C)c3ccc(Oc4ncccn4)cc3oc2=O)c1F [AVUTOMETINIB],,> 30 µM (inactive),> 30 µM (inactive),> 30 µM (inactive),> 30 µM (inactive),,,,,,
CN(C)C(=O)c1cc2cnc(Nc3ccc(N4CCNCC4)cn3)nc2n1C1CCCC1 [RIBOCICLIB],> 30 µM (inactive),,,,> 30 µM (inactive),> 30 µM (inactive),> 30 µM (inactive),,,,
CCc1cnn2c(NCc3ccc[n+]([O-])c3)cc(N3CCCC[C@H]3CCO)nc12 [DINACICLIB],> 30 µM (inactive),,,,,> 30 µM (inactive),> 30 µM (inactive),> 30 µM (inactive),> 30 µM (inactive),> 30 µM (inactive),
COc1ccc(-c2ccc3c(N4CCOC[C@@H]4C)nc(N4CCOC[C@@H]4C)nc3n2)cc1CO [AZD-8055],> 30 µM (inactive),> 30 µM (inactive),> 30 µM (inactive),,> 30 µM (inactive),> 30 µM (inactive),> 30 µM (inactive),> 30 µM (inactive),> 30 µM (inactive),,
C[C@@H](Nc1cc(F)cc(F)c1)c1cc(C(=O)N(C)C)cc2c(=O)cc(N3CCOCC3)oc12 [AZD-8186],> 30 µM (inactive),,> 30 µM (inactive),,> 30 µM (inactive),,> 30 µM (inactive),,,,> 30 µM (inactive)
CNC(=O)CN1CCC(Oc2cc3c(Nc4cccc(Cl)c4F)ncnc3cc2OC)CC1 [SAPITINIB],> 30 µM (inactive),> 30 µM (inactive),> 30 µM (inactive),,> 30 µM (inactive),,,> 30 µM (inactive),> 30 µM (inactive),> 30 µM (inactive),
C[C@@H](c1ccc2nccn2c1)n1nnc2ncc(-c3cnn(C)c3)nc21 [SAVOLITINIB],> 30 µM (inactive),,> 30 µM (inactive),,,> 30 µM (inactive),> 30 µM (inactive),> 30 µM (inactive),> 30 µM (inactive),,
CN1CCC(COc2cnc(-c3cccc(Cn4nc(-c5cccc(C#N)c5)ccc4=O)c3)nc2)CC1 [TEPOTINIB],> 30 µM (inactive),> 30 µM (inactive),> 30 µM (inactive),,,> 30 µM (inactive),> 30 µM (inactive),> 30 µM (inactive),> 30 µM (inactive),,
COc1cc(N2CCC(N3CCN(C)CC3)CC2)ccc1Nc1ncnc(Nc2ccccc2S(=O)(=O)C(C)C)n1 [ASP-3026],> 30 µM (inactive),> 30 µM (inactive),> 30 µM (inactive),,> 30 µM (inactive),,> 30 µM (inactive),> 30 µM (inactive),,,
Cc1cc2c(F)c(Oc3ncnn4cc(OC[C@@H](C)OC(=O)[C@H](C)N)c(C)c34)ccc2[nH]1 [BRIVANIB ALANINATE],> 30 µM (inactive),> 30 µM (inactive),> 30 µM (inactive),> 30 µM (inactive),> 30 µM (inactive),,,,> 30 µM (inactive),,
Cn1cc(-c2ccc(F)c(C(F)(F)F)c2)nc1C1CCN(c2ncnc3[nH]ncc23)CC1 [LY-2584702],> 30 µM (inactive),> 30 µM (inactive),,,> 30 µM (inactive),,,> 30 µM (inactive),,,> 30 µM (inactive)
Cc1cn(-c2cc(NC(=O)c3ccc(C)c(Nc4nccc(-c5cccnc5)n4)c3)cc(C(F)(F)F)c2)cn1 [NILOTINIB],,,,,,> 30 µM (inactive),,,,,
O=C1NC(=O)/C(=C/c2ccc3nccc(-c4ccncc4)c3c2)S1 [GSK-1059615],> 30 µM (inactive),> 30 µM (inactive),> 30 µM (inactive),,> 30 µM (inactive),> 30 µM (inactive),> 30 µM (inactive),> 30 µM (inactive),> 30 µM (inactive),,
CN1CCC(CNc2ccc3ncc(-c4cccc(OC(F)(F)F)c4)n3n2)CC1 [SGI-1776],> 30 µM (inactive),> 30 µM (inactive),> 30 µM (inactive),> 30 µM (inactive),> 30 µM (inactive),> 30 µM (inactive),,> 30 µM (inactive),,> 30 µM (inactive),
CN1CC[C@@H](c2c(O)cc(O)c3c(=O)cc(-c4ccccc4Cl)oc23)[C@@H]1CO,> 30 µM (inactive),> 30 µM (inactive),> 30 µM (inactive),,6.67 µM,> 30 µM (inactive),,> 30 µM (inactive),> 30 µM (inactive),> 30 µM (inactive),
Cc1ccc(S(=O)(=O)Nc2nc3ccccc3nc2Nc2ccc3nsnc3c2)cc1,> 30 µM (inactive),> 30 µM (inactive),> 30 µM (inactive),,,> 30 µM (inactive),> 30 µM (inactive),,> 30 µM (inactive),> 30 µM (inactive),
COc1cc2nccc(Oc3ccc(NC(=O)NC4CC4)c(Cl)c3)c2cc1C(N)=O [LENVATINIB],> 30 µM (inactive),> 30 µM (inactive),> 30 µM (inactive),> 30 µM (inactive),> 30 µM (inactive),> 30 µM (inactive),,> 30 µM (inactive),> 30 µM (inactive),,
COCCNCc1ccc(-c2cc3nccc(Oc4ccc(NC(=S)NC(=O)Cc5ccc(F)cc5)cc4F)c3s2)nc1 [GLESATINIB],> 30 µM (inactive),> 30 µM (inactive),> 30 µM (inactive),> 30 µM (inactive),,> 30 µM (inactive),,,,,
CCn1c(-c2nonc2N)nc2c(C#CC(C)(C)O)ncc(OC[C@H]3CCCNC3)c21 [GSK-690693],,,,,,> 30 µM (inactive),,,,,
CCN1CCN(Cc2ccc(-c3cc4c(N[C@H](C)c5ccccc5)ncnc4[nH]3)cc2)CC1 [AEE-788],> 30 µM (inactive),> 30 µM (inactive),> 30 µM (inactive),> 30 µM (inactive),> 30 µM (inactive),,> 30 µM (inactive),,> 30 µM (inactive),> 30 µM (inactive),
C1=C/COCc2cc(ccc2OCCN2CCCC2)Nc2nccc(n2)-c2cccc(c2)COC/1 [PACRITINIB],,,,,> 30 µM (inactive),> 30 µM (inactive),,,,,
Nc1nc(N)c2nc(-c3cccc(O)c3)c(-c3cccc(O)c3)nc2n1 [TG100-115],,,,,,> 30 µM (inactive),> 30 µM (inactive),,,,
O=C(c1ccc(F)c(F)c1Nc1ccc(I)cc1F)N1CC(O)([C@@H]2CCCCN2)C1 [COBIMETINIB],> 30 µM (inactive),> 30 µM (inactive),> 30 µM (inactive),> 30 µM (inactive),> 30 µM (inactive),,> 30 µM (inactive),> 30 µM (inactive),> 30 µM (inactive),,
